Measurements published in the kinase profiling compilation of Christmann-Franck et al. (2016).

Assays:
Test in all cases: KINOMEscan competition binding
Settings in all cases: compound 1.0 µM
[1] = system: ABL1 (human), P00519 [M351T]
ACVR1 (human) = ACVR1 (human) (UniProt Q04771)
CAMK1G (human) = CAMK1G (human) (UniProt Q96NX5)
CAMK2A (human) = CAMK2A (human) (UniProt Q9UQM7)
CAMKK1 (human) = CAMKK1 (human) (UniProt Q8N5S9)
CDC42BPG (human) = CDC42BPG (human) (UniProt Q6DT37)
CDK15 (human) = CDK15 (human) (UniProt Q96Q40)
CHUK (human) = CHUK (human) (UniProt O15111)
CHUK (human), sequence (O15111 whole entry, looked up): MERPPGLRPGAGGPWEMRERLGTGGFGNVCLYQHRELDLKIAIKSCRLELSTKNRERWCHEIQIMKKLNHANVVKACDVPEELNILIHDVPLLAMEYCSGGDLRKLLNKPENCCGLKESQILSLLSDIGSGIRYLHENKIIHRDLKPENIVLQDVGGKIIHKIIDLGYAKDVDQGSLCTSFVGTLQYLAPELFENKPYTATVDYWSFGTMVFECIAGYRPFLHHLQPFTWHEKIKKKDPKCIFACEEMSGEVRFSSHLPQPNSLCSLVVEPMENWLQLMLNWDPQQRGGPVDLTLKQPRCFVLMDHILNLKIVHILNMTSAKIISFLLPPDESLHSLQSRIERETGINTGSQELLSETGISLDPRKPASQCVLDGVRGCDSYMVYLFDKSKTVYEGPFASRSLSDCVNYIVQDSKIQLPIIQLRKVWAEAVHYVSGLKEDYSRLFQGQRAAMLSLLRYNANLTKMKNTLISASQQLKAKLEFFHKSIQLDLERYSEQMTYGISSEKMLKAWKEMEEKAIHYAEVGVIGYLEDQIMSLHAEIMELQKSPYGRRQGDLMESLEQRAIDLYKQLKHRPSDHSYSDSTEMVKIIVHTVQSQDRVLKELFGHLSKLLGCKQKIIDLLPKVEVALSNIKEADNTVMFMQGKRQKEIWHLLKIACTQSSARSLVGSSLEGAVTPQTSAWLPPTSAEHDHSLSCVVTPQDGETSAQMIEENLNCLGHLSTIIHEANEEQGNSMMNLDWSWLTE

CRK2 (P.falciparum) = CRK2 (P.falciparum) (UniProt P61075)
CSNK1D (human) = CSNK1D (human) (UniProt P48730)
DAPK1 (human) = DAPK1 (human) (UniProt P53355)
DAPK1 (human), sequence (P53355 whole entry, looked up): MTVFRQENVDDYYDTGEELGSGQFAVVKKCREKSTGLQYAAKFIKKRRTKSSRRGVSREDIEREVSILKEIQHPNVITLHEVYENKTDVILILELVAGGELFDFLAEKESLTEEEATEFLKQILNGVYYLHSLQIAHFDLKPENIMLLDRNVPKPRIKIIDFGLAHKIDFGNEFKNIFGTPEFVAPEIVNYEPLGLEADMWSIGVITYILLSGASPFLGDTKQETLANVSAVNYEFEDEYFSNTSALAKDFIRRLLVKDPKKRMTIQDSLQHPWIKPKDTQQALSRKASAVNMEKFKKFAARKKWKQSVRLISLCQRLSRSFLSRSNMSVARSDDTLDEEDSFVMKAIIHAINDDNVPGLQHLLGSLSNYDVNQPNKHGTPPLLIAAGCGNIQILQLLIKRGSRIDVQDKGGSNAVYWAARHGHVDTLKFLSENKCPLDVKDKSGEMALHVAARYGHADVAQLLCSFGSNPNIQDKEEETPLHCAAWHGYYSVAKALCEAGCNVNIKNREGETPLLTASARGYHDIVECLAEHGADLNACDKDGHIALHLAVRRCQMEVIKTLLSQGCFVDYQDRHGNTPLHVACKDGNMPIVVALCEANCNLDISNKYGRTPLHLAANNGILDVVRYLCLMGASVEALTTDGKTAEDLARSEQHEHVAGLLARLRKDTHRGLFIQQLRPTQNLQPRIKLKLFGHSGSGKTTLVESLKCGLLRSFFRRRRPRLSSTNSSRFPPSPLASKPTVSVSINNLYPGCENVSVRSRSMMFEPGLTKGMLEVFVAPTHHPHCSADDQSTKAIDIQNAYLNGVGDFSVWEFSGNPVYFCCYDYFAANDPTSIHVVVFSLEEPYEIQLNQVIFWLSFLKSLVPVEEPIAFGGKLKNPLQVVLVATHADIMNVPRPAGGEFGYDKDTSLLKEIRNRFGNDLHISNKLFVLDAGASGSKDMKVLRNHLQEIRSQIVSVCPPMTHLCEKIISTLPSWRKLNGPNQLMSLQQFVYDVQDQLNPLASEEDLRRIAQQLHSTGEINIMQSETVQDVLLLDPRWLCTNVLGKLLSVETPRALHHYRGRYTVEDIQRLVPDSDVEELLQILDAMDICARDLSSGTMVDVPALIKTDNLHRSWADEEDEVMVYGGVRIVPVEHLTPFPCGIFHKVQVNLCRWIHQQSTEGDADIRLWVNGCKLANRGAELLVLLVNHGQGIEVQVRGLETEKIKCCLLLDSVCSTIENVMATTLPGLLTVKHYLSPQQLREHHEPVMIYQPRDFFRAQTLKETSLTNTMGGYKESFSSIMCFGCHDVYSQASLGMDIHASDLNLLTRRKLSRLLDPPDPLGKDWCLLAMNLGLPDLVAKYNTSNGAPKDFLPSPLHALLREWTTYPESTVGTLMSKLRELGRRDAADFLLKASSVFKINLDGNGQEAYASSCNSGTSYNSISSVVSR

DMPK (human) = DMPK (human) (UniProt Q09013)
[2] = system: EGFR (human), P00533 [746-750 del]
[3] = system: EGFR (human), P00533 [A750P; 747-749 del]
EPHB6 (human) = EPHB6 (human) (UniProt O15197)
FYN (human) = FYN (human) (UniProt P06241)
GRK1 (human) = GRK1 (human) (UniProt Q15835)
IKBKE (human) = IKBKE (human) (UniProt Q14164)
ITK (human) = ITK (human) (UniProt Q08881)
[4] = molecular target: JAK3 JH1 catalytic (human) (UniProt P52333)
[5] = system: KIT (human), P10721 [A829P]
[6] = system: KIT (human), P10721 [D816H]
LCK (human) = LCK (human) (UniProt P06239)
LCK (human), sequence (P06239 whole entry, looked up): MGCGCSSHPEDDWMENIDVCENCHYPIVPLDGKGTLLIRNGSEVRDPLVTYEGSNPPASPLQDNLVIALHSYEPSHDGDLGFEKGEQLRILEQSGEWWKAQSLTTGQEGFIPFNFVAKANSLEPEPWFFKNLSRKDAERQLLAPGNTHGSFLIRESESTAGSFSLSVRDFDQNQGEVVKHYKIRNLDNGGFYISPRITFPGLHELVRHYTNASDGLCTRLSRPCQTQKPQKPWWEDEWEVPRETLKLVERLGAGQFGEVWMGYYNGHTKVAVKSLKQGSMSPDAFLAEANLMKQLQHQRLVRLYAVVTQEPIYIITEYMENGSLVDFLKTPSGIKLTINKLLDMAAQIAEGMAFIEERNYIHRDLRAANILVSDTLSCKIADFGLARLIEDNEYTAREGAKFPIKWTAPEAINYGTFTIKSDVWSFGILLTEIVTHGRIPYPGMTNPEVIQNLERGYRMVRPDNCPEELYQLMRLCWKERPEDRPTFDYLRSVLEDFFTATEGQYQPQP

MAPK3 (human) = MAPK3 (human) (UniProt P27361)
MAPK8 (human) = MAPK8 (human) (UniProt P45983)
MAPKAPK2 (human) = MAPKAPK2 (human) (UniProt P49137)
[7] = system: MET (human), P08581 [Y1235D]
MYLK3 (human) = MYLK3 (human) (UniProt Q32MK0)
PAK7 (human) = PAK7 (human) (UniProt Q9P286)
PIK3C2G (human) = PIK3C2G (human) (UniProt O75747)
[8] = system: PIK3CA (human), P42336 [E542K]
PIP5K1A (human) = PIP5K1A (human) (UniProt Q99755)
PLK3 (human) = PLK3 (human) (UniProt Q9H4B4)
PRKCE (human) = PRKCE (human) (UniProt Q02156)
PRKG1 (human) = PRKG1 (human) (UniProt Q13976)
RPS6KA1 KD2 (human) = RPS6KA1 KD2 (human) (UniProt Q15418)
RPS6KA1 KD2 (human), sequence (Q15418 whole entry, looked up): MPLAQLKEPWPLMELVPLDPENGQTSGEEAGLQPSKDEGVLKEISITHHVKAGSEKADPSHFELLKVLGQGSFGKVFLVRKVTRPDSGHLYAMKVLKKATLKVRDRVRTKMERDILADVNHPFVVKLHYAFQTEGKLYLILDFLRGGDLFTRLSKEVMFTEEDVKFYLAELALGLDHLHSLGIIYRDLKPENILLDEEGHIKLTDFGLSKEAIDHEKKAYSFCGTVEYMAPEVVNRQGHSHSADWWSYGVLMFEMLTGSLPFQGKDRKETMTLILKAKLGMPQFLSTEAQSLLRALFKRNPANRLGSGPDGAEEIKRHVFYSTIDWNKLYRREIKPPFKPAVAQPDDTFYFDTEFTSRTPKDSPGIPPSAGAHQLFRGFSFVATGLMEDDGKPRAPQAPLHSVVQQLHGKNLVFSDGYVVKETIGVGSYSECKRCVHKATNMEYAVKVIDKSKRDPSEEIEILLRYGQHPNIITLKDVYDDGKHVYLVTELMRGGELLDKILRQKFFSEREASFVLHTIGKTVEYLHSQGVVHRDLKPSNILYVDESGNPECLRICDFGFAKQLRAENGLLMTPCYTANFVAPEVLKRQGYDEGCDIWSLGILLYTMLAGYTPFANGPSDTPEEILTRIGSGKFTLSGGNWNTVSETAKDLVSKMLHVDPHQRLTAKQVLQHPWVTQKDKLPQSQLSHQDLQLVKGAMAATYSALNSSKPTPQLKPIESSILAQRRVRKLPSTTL

RPS6KA5 KD2 (human) = RPS6KA5 KD2 (human) (UniProt O75582)
RPS6KA5 KD2 (human), sequence (O75582 whole entry, looked up): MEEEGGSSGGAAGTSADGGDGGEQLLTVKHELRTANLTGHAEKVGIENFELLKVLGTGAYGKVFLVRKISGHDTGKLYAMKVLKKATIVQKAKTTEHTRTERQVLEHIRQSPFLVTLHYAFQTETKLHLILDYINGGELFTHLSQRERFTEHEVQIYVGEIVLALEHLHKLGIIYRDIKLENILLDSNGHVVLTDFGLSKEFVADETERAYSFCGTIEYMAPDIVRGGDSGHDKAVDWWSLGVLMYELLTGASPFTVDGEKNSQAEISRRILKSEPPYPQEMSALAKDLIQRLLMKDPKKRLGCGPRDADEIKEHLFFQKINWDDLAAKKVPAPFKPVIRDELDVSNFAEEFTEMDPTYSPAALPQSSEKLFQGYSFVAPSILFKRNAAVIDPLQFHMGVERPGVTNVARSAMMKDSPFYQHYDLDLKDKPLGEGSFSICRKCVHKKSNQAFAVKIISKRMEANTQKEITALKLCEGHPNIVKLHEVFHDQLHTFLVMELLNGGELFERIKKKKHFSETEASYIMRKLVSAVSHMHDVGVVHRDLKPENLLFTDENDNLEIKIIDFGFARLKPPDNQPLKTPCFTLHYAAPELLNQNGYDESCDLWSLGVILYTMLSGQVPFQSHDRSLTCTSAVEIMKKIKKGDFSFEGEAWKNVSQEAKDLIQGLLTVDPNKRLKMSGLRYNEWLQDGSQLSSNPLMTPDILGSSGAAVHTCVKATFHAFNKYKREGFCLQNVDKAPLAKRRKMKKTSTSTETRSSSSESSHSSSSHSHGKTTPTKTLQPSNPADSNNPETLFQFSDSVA

TEC (human) = TEC (human) (UniProt P42680)
TSSK1B (human) = TSSK1B (human) (UniProt Q9BXA7)
TSSK1B (human), sequence (Q9BXA7 whole entry, looked up): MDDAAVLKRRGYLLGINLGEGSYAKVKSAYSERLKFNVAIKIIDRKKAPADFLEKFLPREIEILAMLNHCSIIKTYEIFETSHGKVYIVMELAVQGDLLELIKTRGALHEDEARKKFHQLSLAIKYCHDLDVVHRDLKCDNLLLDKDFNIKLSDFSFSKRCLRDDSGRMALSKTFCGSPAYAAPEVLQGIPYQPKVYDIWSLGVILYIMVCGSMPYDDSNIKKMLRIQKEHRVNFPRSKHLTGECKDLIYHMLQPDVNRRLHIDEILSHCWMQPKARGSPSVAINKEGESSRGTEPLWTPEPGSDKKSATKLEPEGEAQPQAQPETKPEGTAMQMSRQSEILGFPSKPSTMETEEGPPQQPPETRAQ

[9] = molecular target: TYK2 JH1 catalytic (human) (UniProt P29597)
ULK2 (human) = ULK2 (human) (UniProt Q8IYT8)
WEE2 (human) = WEE2 (human) (UniProt P0C1S8)

CAMK2A (human), sequence (Q9UQM7 whole entry, looked up): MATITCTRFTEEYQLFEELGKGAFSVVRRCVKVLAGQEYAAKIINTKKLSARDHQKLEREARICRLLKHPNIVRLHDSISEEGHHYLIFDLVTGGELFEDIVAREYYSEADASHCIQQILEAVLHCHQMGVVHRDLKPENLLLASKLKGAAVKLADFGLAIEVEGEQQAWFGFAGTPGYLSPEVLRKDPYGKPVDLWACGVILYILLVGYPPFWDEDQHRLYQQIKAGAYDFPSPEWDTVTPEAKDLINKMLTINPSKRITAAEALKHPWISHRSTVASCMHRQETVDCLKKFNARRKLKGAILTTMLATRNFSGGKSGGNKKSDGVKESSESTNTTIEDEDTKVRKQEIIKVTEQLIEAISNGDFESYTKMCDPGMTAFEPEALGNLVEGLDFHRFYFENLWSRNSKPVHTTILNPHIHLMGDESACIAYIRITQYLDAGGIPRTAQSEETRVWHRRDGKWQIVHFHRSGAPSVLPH

CN(C)C/C=C/C(=O)Nc1cccc(C(=O)Nc2ccc(Nc3nccc(/C(C#N)=C4\Nc5ccccc5S4)n3)cc2)c1
kinase still bound, per cent of control [1]: 69% | kinase still bound, per cent of control (ACVR1 (human)): 100% | kinase still bound, per cent of control (CAMK1G (human)): 100% | kinase still bound, per cent of control (CAMK2A (human)): 100% | kinase still bound, per cent of control (CAMKK1 (human)): 100% | kinase still bound, per cent of control (CDC42BPG (human)): 88% | kinase still bound, per cent of control (CDK15 (human)): 100% | kinase still bound, per cent of control (CHUK (human)): 100% | kinase still bound, per cent of control (CRK2 (P.falciparum)): 100% | kinase still bound, per cent of control (CSNK1D (human)): 26% | kinase still bound, per cent of control (DAPK1 (human)): 100% | kinase still bound, per cent of control (DMPK (human)): 78% | kinase still bound, per cent of control [2]: 72% | kinase still bound, per cent of control [3]: 94% | kinase still bound, per cent of control (EPHB6 (human)): 49% | kinase still bound, per cent of control (FYN (human)): 95% | kinase still bound, per cent of control (GRK1 (human)): 100% | kinase still bound, per cent of control (IKBKE (human)): 100% | kinase still bound, per cent of control (ITK (human)): 85% | kinase still bound, per cent of control [4]: 83% | kinase still bound, per cent of control [5]: 100% | kinase still bound, per cent of control [6]: 100% | kinase still bound, per cent of control (LCK (human)): 100% | kinase still bound, per cent of control (MAPK3 (human)): 100% | kinase still bound, per cent of control (MAPK8 (human)): 0% | kinase still bound, per cent of control (MAPKAPK2 (human)): 92% | kinase still bound, per cent of control [7]: 100% | kinase still bound, per cent of control (MYLK3 (human)): 100% | kinase still bound, per cent of control (PAK7 (human)): 69% | kinase still bound, per cent of control (PIK3C2G (human)): 100% | kinase still bound, per cent of control [8]: 100% | kinase still bound, per cent of control (PIP5K1A (human)): 39% | kinase still bound, per cent of control (PLK3 (human)): 59% | kinase still bound, per cent of control (PRKCE (human)): 100% | kinase still bound, per cent of control (PRKG1 (human)): 100% | kinase still bound, per cent of control (RPS6KA1 KD2 (human)): 100% | kinase still bound, per cent of control (RPS6KA5 KD2 (human)): 100% | kinase still bound, per cent of control (TEC (human)): 100% | kinase still bound, per cent of control (TSSK1B (human)): 100% | kinase still bound, per cent of control [9]: 72% | kinase still bound, per cent of control (ULK2 (human)): 73% | kinase still bound, per cent of control (WEE2 (human)): 100%

CN(C)C/C=C/C(=O)Nc1cccc(C(=O)Nc2ccc(Nc3nccc(-c4cccnc4)n3)cc2)c1
kinase still bound, per cent of control [1]: 42% | kinase still bound, per cent of control (ACVR1 (human)): 70% | kinase still bound, per cent of control (CAMK1G (human)): 78% | kinase still bound, per cent of control (CAMK2A (human)): 100% | kinase still bound, per cent of control (CAMKK1 (human)): 64% | kinase still bound, per cent of control (CDC42BPG (human)): 73% | kinase still bound, per cent of control (CDK15 (human)): 96% | kinase still bound, per cent of control (CHUK (human)): 53% | kinase still bound, per cent of control (CRK2 (P.falciparum)): 100% | kinase still bound, per cent of control (CSNK1D (human)): 5.6% | kinase still bound, per cent of control (DAPK1 (human)): 63% | kinase still bound, per cent of control (DMPK (human)): 90% | kinase still bound, per cent of control [2]: 88% | kinase still bound, per cent of control [3]: 87% | kinase still bound, per cent of control (EPHB6 (human)): 18% | kinase still bound, per cent of control (FYN (human)): 90% | kinase still bound, per cent of control (GRK1 (human)): 100% | kinase still bound, per cent of control (IKBKE (human)): 98% | kinase still bound, per cent of control (ITK (human)): 85% | kinase still bound, per cent of control [4]: 27% | kinase still bound, per cent of control [5]: 78% | kinase still bound, per cent of control [6]: 42% | kinase still bound, per cent of control (LCK (human)): 100% | kinase still bound, per cent of control (MAPK3 (human)): 100% | kinase still bound, per cent of control (MAPK8 (human)): 0% | kinase still bound, per cent of control (MAPKAPK2 (human)): 100% | kinase still bound, per cent of control [7]: 100% | kinase still bound, per cent of control (MYLK3 (human)): 85% | kinase still bound, per cent of control (PAK7 (human)): 75% | kinase still bound, per cent of control (PIK3C2G (human)): 100% | kinase still bound, per cent of control [8]: 82% | kinase still bound, per cent of control (PIP5K1A (human)): 18% | kinase still bound, per cent of control (PLK3 (human)): 75% | kinase still bound, per cent of control (PRKCE (human)): 61% | kinase still bound, per cent of control (PRKG1 (human)): 100% | kinase still bound, per cent of control (RPS6KA1 KD2 (human)): 82% | kinase still bound, per cent of control (RPS6KA5 KD2 (human)): 100% | kinase still bound, per cent of control (TEC (human)): 100% | kinase still bound, per cent of control (TSSK1B (human)): 100% | kinase still bound, per cent of control [9]: 16% | kinase still bound, per cent of control (ULK2 (human)): 86% | kinase still bound, per cent of control (WEE2 (human)): 100%

Cc1cc(NC(=O)c2cccc(NC(=O)/C=C/CN(C)C)c2)ccc1Nc1nccc(-c2cccnc2)n1
kinase still bound, per cent of control [1]: 81% | kinase still bound, per cent of control (ACVR1 (human)): 100% | kinase still bound, per cent of control (CAMK1G (human)): 100% | kinase still bound, per cent of control (CAMK2A (human)): 100% | kinase still bound, per cent of control (CAMKK1 (human)): 100% | kinase still bound, per cent of control (CDC42BPG (human)): 86% | kinase still bound, per cent of control (CDK15 (human)): 100% | kinase still bound, per cent of control (CHUK (human)): 100% | kinase still bound, per cent of control (CRK2 (P.falciparum)): 90% | kinase still bound, per cent of control (CSNK1D (human)): 18% | kinase still bound, per cent of control (DAPK1 (human)): 100% | kinase still bound, per cent of control (DMPK (human)): 63% | kinase still bound, per cent of control [2]: 90% | kinase still bound, per cent of control [3]: 84% | kinase still bound, per cent of control (EPHB6 (human)): 71% | kinase still bound, per cent of control (FYN (human)): 78% | kinase still bound, per cent of control (GRK1 (human)): 100% | kinase still bound, per cent of control (IKBKE (human)): 91% | kinase still bound, per cent of control (ITK (human)): 100% | kinase still bound, per cent of control [4]: 87% | kinase still bound, per cent of control [5]: 69% | kinase still bound, per cent of control [6]: 68% | kinase still bound, per cent of control (LCK (human)): 100% | kinase still bound, per cent of control (MAPK3 (human)): 100% | kinase still bound, per cent of control (MAPK8 (human)): 0% | kinase still bound, per cent of control (MAPKAPK2 (human)): 100% | kinase still bound, per cent of control [7]: 100% | kinase still bound, per cent of control (MYLK3 (human)): 100% | kinase still bound, per cent of control (PAK7 (human)): 88% | kinase still bound, per cent of control (PIK3C2G (human)): 81% | kinase still bound, per cent of control [8]: 100% | kinase still bound, per cent of control (PIP5K1A (human)): 75% | kinase still bound, per cent of control (PLK3 (human)): 66% | kinase still bound, per cent of control (PRKCE (human)): 81% | kinase still bound, per cent of control (PRKG1 (human)): 72% | kinase still bound, per cent of control (RPS6KA1 KD2 (human)): 88% | kinase still bound, per cent of control (RPS6KA5 KD2 (human)): 97% | kinase still bound, per cent of control (TEC (human)): 100% | kinase still bound, per cent of control (TSSK1B (human)): 100% | kinase still bound, per cent of control [9]: 96% | kinase still bound, per cent of control (ULK2 (human)): 96% | kinase still bound, per cent of control (WEE2 (human)): 100%
